Test results published in US9561232B2, “Low dose noribogaine for treating nicotine addiction and preventing relapse of nicotine use” (priority 2014, dated 2017).
Entries after “also recorded” stand apart in the source; their conditions may differ.

Experiments:
[1] = QT interval evaluation in opioid-dependent participants; type: in vivo, human; conditions: 60, 120, 180 mg, first 24 hours post administration; correlated with serum concentration
Method: Patients' QT intervals were evaluated at regular time points throughout the study.

[2] = Ascending single oral dose pharmacokinetics of noribogaine in healthy volunteers (plasma, urine, LCMSMS); conditions: for mean AUC/24 hr / mean AUC/24: fasting conditions, serum
[3] = Safety and tolerability of noribogaine in healthy humans
[4] = noribogaine in plasma, across dose groups 3-60 mg

CC[C@H]1CC2C[C@H]3c4[nH]c5ccc(O)cc5c4CCN(C2)C13 [Noribogaine]
QT interval prolongation (ΔQTcl) [1]: dose-dependent increase in QT interval prolongation | Tmax ([2]; healthy volunteers, single oral 30 mg noribogaine, fasted, plasma, mean (SD), n = 6, listed as noribogaine free base): 1.75 h | Mean half-life estimates [2, 4]: 28 to 50 h | time of peak concentrations after oral dosing [2, 4]: 2 to 3 h | mean AUC/24 hr ([2]; single dose of 3 mg noribogaine free base): 3.1 ng/mL | mean AUC/24 hr ([2]; single dose of 10 mg noribogaine free base): 10.6 ng/mL | mean AUC/24 ([2]; single dose of 30 mg noribogaine free base): 29.2 ng/mL | mean AUC/24 ([2]; single dose of 60 mg noribogaine free base): 61 ng/mL | dose dependence of Cmax and AUC ([2]; single oral 3-60 mg): increased linearly with dose | number of adverse events reported ([3]; 3 mg dose group): five adverse events were reported by two subjects | number of adverse events reported ([3]; 10 mg dose group): one adverse event was reported by single subjects | number of adverse events reported ([3]; 30 mg dose group): one adverse event was reported by single subjects | intensity of adverse events ([3]; all dose groups, all resolved prior to study completion): mild-moderate intensity | Adverse events: Mild ([3]; healthy volunteers, 3 mg dose): Dizziness; also recorded: Epistaxis; also recorded: Headache; also recorded: Back pain | Adverse events: Moderate ([3]; healthy volunteers, 3 mg dose): Headache | Adverse events: Mild ([3]; healthy volunteers, 10 mg dose): Headache | Adverse events: Mild ([3]; healthy volunteers, 30 mg dose): Headache | QTcF values ([3]; healthy volunteers, 3-60 mg, at any time): ≤ 500 ms | increase in QTcF ([3]; one subject, 10 mg, single increase at 24 hours post-dosing): > 60 ms
